Data taken from patent publication US20250011881A1, “MYC-HSF1 DUAL AMPLIFICATION AS A BIOMARKER FOR CANCER TREATMENT” (The Trustees of Indiana University, priority 2023, published 2025).
Structures can show the parent of a compound that is named as a salt.

test system: ovarian cancer cells with (OVCAR8, OVCAR4) or without (OVSAHO, CAOV3) MYC-HSF1 amplification; test: Epigenetic inhibitor drug screen, cell viability (Cell Titer Blue); type: cell-based; settings: not given

SMILES	Non Amp - AMP (POC) 10 uM [POC]
CCCCCCCCCCCCCC(=O)O[C@@H]1[C@@H](C)[C@@]2(O)[C@@H](C=C(CO)C[C@]3(O)C(=O)C(C)=C[C@@H]23)[C@@H]2C(C)(C)[C@]12OC(C)=O [12-O-tetradecanoyl phorbol-13-acetate]	−2.545

same assay, conditions: 10 uM, 48 hrs; average relative cell viability (vs 1% DMSO) of non-amplified cells (OVSAHO, CAOV3) minus that of MYC-HSF1 amplified cells (OVCAR8, OVCAR4); positive = greater response in amplified cells

SMILES	Non Amp - AMP (POC) 10 uM [POC]
BrC1C(Br)C(Br)C(Br)C(Br)C1Br (centres unmarked) [1,2,3,4,5,6-Hexabromocyclohexane]	−13.98
COc1cc2c(cc1O)CC[C@@H]1[C@@H]2CC[C@]2(C)[C@@H](O)CC[C@@H]12 [2-Methoxyestradiol (2-MeOE2), 2-Methoxyestradiol]	23.41
C#CCC(CCCCCC)C(=O)O (centres unmarked) [2-hexyl-4-Pentynoic Acid]	2.599
O=c1[nH]cnc2ccccc12 [4-HQN]	−1.37
O=C(CCCCCCC(=O)Nc1ccc(I)cc1)NO [4-iodo-SAHA]	29.5
Cn1cc(-c2ccc(S(=O)(=O)n3ccc(/C=C/C(=O)Nc4ccccc4N)c3)cc2)cn1 [4SC-202]	15.57
Cc1cn([C@H]2C[C@H](O)[C@@H](CO)O2)c(=O)nc1N [5-Methyl-2′-deoxycytidine]	−10.37
CCCCC[C@H](O)CC(=O)CCc1ccc(O)c(OC)c1 [6-gingerol]	−6.674
O=C([O-])[C@@]1(CCCCCCOc2ccc(Cl)cc2)CO1.[Na+] [(R)-(+)-Etomoxir sodium salt]	3.941
Clc1cc2c(NC3CCCC3)nnc(-c3ccncc3)c2cc1Cl [A-196]	2.334
N#Cc1c(O)c2c(-c3ccc(-c4ccccc4O)cc3)csc2[nH]c1=O [A-769662]	−2.694
NC(=O)c1cccc2[nH]c(-c3ccc([C@@H]4CCCN4)cc3F)nc12 [A-966492]	13.6
O=C(NCc1ccncc1)C12CC3CC(C1)CC(c1ccc(Cl)cc1)(C3)C2 [ABC294640]	4.657
O=C(CCCCCCNC(=O)c1cnc(N(c2ccccc2)c2ccccc2Cl)nc1)NO [ACY-241]	35.17
N#C/C(=C/c1ccc(O)c(O)c1)C(=O)NCc1ccccc1 [AG-490]	−10.83
CN(C)Cc1ccc(-c2nc3cccc4c3n2CCNC4=O)cc1 [AG-14361]	0.2059

same assay, conditions: 10 uM, 48 hrs; average relative cell viability (vs 1% DMSO) of non-amplified cells (OVSAHO, CAOV3) minus that of MYC-HSF1 amplified cells (OVCAR8, OVCAR4); positive = greater response in amplified cells; 10 µM

SMILES	Non Amp - AMP (POC) 10 uM [POC]
N[C@@H]1C[C@H]1c1ccccc1 (racemic) [Tranylcypromine (hydrochloride), Tranylcypromine]	0.7437
O=C(O)c1ccnc(C(=O)O)c1 [2,4-Pyridinedicarboxylic Acid (hydrate), 2,4-Pyridinedicarboxylic Acid]	10.85
O=C(O)c1ccnc(C(=O)O)c1 [2,4-Pyridinedicarboxylic Acid]	−1.887
Nc1nccc2c1ncn2[C@@H]1C=C(CO)[C@@H](O)[C@H]1O [3-Deazaneplanocin A (DZNep) hydrochloride]	8.136
Nc1nccc2c1ncn2[C@@H]1C=C(CO)[C@@H](O)[C@H]1O [3-Deazaneplanocin A]	28.52
O=Nc1ccc(O)c2ncccc12 [5-Nitroso-8-quinolinol]	9.462
Nc1nc2nc[nH]c2c(=S)[nH]1 [6-Thioguanine]	12.09
Cl.O=C([C@@H](Cc1cccc(C(F)(F)F)c1)NS(=O)(=O)c1cc(F)c2c(c1)CCNC2)N1CCCC1 [(R)-PFI-2 (hydrochloride)]	19.35
COc1cc2c(cc1OCCCN1CCCC1)N=C(N)C21CCC1 [A-366]	11.91
C[C@]1(c2nc3c(C(N)=O)cccc3[nH]2)CCCN1 [ABT-888 (Veliparib), Veliparib]	−1.058

same assay, conditions: 10 uM, 48 hrs; average relative cell viability (vs 1% DMSO) of non-amplified cells (OVSAHO, CAOV3) minus that of MYC-HSF1 amplified cells (OVCAR8, OVCAR4); positive = greater response in amplified cells; listed as A 366, 10 µM

SMILES	Non Amp - AMP (POC) 10 uM [POC]
COc1cc2c(cc1OCCCN1CCCC1)N=C(N)C21CCC1 [A-366]	3.68

same assay, conditions: 10 uM, 48 hrs; average relative cell viability (vs 1% DMSO) of non-amplified cells (OVSAHO, CAOV3) minus that of MYC-HSF1 amplified cells (OVCAR8, OVCAR4); positive = greater response in amplified cells; listed as Tranylcypromine hydrochloride, 10 µM

SMILES	Non Amp - AMP (POC) 10 uM [POC]
N[C@@H]1C[C@H]1c1ccccc1 (racemic) [Tranylcypromine (hydrochloride), Tranylcypromine]	−0.6348
